The values that follow come from paper PMC10477481 (The Journal of Biological Chemistry, 2023).

In general, Km refers to the concentration of substrate that gives half-maximal velocity. What is called Kd is the concentration at which binding is half-saturated.

In experiment [1] the target is T1, recombinant human active MMP-2 (Homo sapiens, UniProt P08253).
T1 construct: the mature active enzyme (amino acids: 110–660), expressed in E. coli (Sigma, catalog no.: SRP3118); purchased Sigma SRP3118; host or cells: E. coli
T1 sequence (P08253 110-660): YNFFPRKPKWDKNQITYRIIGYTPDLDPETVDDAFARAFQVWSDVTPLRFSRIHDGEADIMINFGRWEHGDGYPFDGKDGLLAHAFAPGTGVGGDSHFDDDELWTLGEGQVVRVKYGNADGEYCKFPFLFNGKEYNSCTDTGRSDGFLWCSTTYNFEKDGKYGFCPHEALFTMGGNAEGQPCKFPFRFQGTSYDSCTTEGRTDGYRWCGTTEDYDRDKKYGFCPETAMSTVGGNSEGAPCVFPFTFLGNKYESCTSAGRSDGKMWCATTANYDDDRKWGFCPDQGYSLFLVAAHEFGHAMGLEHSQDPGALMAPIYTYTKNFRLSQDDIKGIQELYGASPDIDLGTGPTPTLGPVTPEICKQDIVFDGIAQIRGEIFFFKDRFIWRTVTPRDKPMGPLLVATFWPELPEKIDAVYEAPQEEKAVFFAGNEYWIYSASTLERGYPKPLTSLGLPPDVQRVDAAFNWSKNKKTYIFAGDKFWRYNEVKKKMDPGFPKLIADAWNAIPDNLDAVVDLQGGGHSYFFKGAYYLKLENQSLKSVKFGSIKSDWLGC
The format is biochemical. As to conditions: pH 7.4.
Experimental: The assay was performed using fluorogenic dye-quenched (DQ)-gelatin from pig skin (ThermoFisher Scientific) as substrate and recombinant human MMP-2 enzyme (Sigma; catalog no.: SRP3118), dissolved in water (100 μg/ml), and diluted further in reaction buffer (50 mM Tris, 150 mM NaCl, 5 mM CaCl2, pH = 7.4). The assay (and control) reactions were composed by loading 50 μl enzyme (or buffer), 40 μl inhibitor (or buffer), and 10 μl substrate (or buffer) into wells of a 96-well plate (PS, black, half-area, clear-bottom; Greiner Bio-One) at concentrations needed for the stated final concentrations. […] Immediately thereafter, the plate was placed in a fluorescence plate reader (SpectraMax iD3; Molecular Devices), and fluorescence was measured every 15 min for 3 h (KM measurements) or every 5 min for 1 h (inhibitor measurements) at 37 °C (λexcitation = 484 nm and λemission = 525 nm). KM was determined by measuring V0 at a series of substrate concentrations (1.25, 2.5, 5, 10, 20, and 40 μg/ml) and enzyme concentrations of 2.5, 5, and 10 nM. Thereafter, the lowest enzyme concentration with reasonably good signal-to-noise ratio (2.5 nM) and a substrate concentration (3.5 μg/ml) approximately equivalent with the determined KM value (3.4 μg/ml, i.e., 34 nmol/l as calculated with approximate MW of 100,000 g/mol for DQ gelatin) were applied in the enzyme inhibition study. […]

Experiment [2] relates to pro-MMP-2 activated by APMA. As to conditions: fluorescence-quenched MMP-specific peptide substrate; read-out: KM of FS-6 with MMP; cited from earlier work. As to the method:
The assay was performed using a fluorescence-quenched MMP-specific peptide substrate FS-6 (Sigma; catalog no.: SCP0193, KM >30 μM) ([20]). Recombinantly produced human proMMP2 enzyme, dissolved in reaction buffer (70 mM Tris [pH 8.0], 150 mM NaCl, 5 mM CaCl2, 1 μM ZnCl2, and 0.05% Brij-35) at a concentration of 500 nM, was activated by addition of 1 mM APMA and incubated at 37 °C for 1 h. The assay reaction was then composed by adding 0.5 μl activated enzyme to yield a final concentration of 2.5 nM, 94.5 μl test substance (inhibitor) in reaction buffer, and finally 5 μl substrate to reach a fi ...

Experiment [3] addresses matrix metalloproteinase 2, recombinant (which of the four preparations is not told) (human) (UniProt P08253). The experiment can be described thus: flow cytometry of protein-coated microbeads (Ig-coated bead test); KD estimated by the authors from the direct binding assays with labeled CTX and the competitive displacement studies together.
The test system of a further experiment is kallikrein. The conditions noted are these: cited from earlier work. From the text:
Therefore, we produced a CTX-displaying phage clone, customized, and validated the flow cytometry–based cobalt-coated bead test for quantitative assessment of the binding tendency of ligand-displaying phages to target proteins immobilized on the surface of microbeads. To support the validation and to investigate the specificity of bind ...

Regarding `CNC(=O)[C@H](Cc1c[nH]c2ccccc12)NC(=O)[C@@H](CC(=O)NO)CC(C)C` [Ilomastat, ilomastat], the “effect on gelatinolytic activity of MMP-2” value in experiment [1] is “concentration-dependent inhibition”.

For “Mca-Lys-Pro-Leu-Gly-Leu-Dpa-Ala-Arg-NH2 [FS-6, fluorescence-quenched MMP-specific peptide substrate]”, the Km in experiment [2] was more than 30 µM. Take “chlorotoxin, synthetically produced, with carboxamide C terminus (from UniProt P45639 1-36) (peptide)”: in experiment [3], the Kd is 500 to 600 nM. As for ecallantide [DX-88], the affinity to kallikrein entry in the experiment with kallikrein is “subnanomolar affinity”.
